Laboratory results published in BindingDB's records for doi:10.1016/j.bmc.2004.11.045 (Yamanouchi Pharmaceutical, 2005).
pIC50: −log10 of the molar value.

Columns and labels:
Experiment in all cases: HIV-1 RT Assay
[1] = molecular target: T1, Gag-Pol polyprotein [588-1127,Y768C]/[588-1147,Y768C] (Human immunodeficiency virus 1, UniProt P04585, Y768C)
T1 construct: 588-1127; 588-1147
Excerpt: (§1) The IC50 of reverse transcriptase is the concentration that inhibits 50% of recombinant HIV-1 RT RNA-directed DNA polymerase activity in vitro.

[2] = molecular target: T2, Gag-Pol polyprotein [588-1027,K690N]/[588-1147,K690N] (Human immunodeficiency virus 1, UniProt P04585, K690N)
T2 construct: 588-1027; 588-1147
Excerpt: as §1

[3] = molecular target: T3, Gag-Pol polyprotein [588-1027]/[588-1147] (Human immunodeficiency virus 1, UniProt P04585)
T3 construct: 588-1027; 588-1147
Excerpt: as §1

| Structure (SMILES) | pIC50 [1] | pIC50 [2] | pIC50 [3] | pIC50 ([1]; pH 8.4, 37 °C) | pIC50 ([2]; pH 8.4, 37 °C) | pIC50 ([3]; pH 8.4, 37 °C) |
| --- | --- | --- | --- | --- | --- | --- |
| Cc1c(C(C)(C)C)s/c(=N\S(=O)(=O)c2ccccc2)n1C | 5.29 | < 4.30 | 5.31 | – | – | – |
| Cc1c(C(C)(C)C)s/c(=N\S(=O)(=O)c2cccc(O)c2)n1C [N-[(2Z)-5-tert-butyl-3,4-dimethyl-2,3-dihydro-1,3-thiazol-2-ylidene]-3-hydroxybenzene-1-sulfonamide] | 4.85 | < 4.30 | 5.06 | – | – | – |
| Cc1c(C(C)(C)C)s/c(=N\S(=O)(=O)c2ccccc2[N+](=O)[O-])n1C [N-[(2Z)-5-tert-butyl-3,4-dimethyl-2,3-dihydro-1,3-thiazol-2-ylidene]-2-nitrobenzene-1-sulfonamide] | – | – | – | 4.44 | < 4.30 | < 4.30 |
| CC(C)c1s/c(=N\S(=O)(=O)c2cc(Br)ccc2O)n(C)c1Cl [5-bromo-N-[(2Z)-4-chloro-3-methyl-5-(propan-2-yl)-2,3-dihydro-1,3-thiazol-2-ylidene]-2-hydroxybenzene-1-sulfonamide] | 7.89 | 7.37 | 8.37 | – | – | – |
| Cc1c(C(C)(C)C)s/c(=N\S(=O)(=O)c2ccccc2Cl)n1C [N-[(2Z)-5-tert-butyl-3,4-dimethyl-2,3-dihydro-1,3-thiazol-2-ylidene]-2-chlorobenzene-1-sulfonamide] | – | – | – | < 5.00 | < 5.00 | < 5.00 |
| COC(=O)c1ccc(Cl)cc1S(=O)(=O)/N=c1\sc(C(C)(C)C)c(C)n1C [methyl 2-{[(2Z)-5-tert-butyl-3,4-dimethyl-2,3-dihydro-1,3-thiazol-2-ylidene]sulfamoyl}-4-chlorobenzoate] | 5.00 | < 5.00 | < 5.00 | – | – | – |
| Cc1c(C(C)(C)C)s/c(=N\S(=O)(=O)c2cc(Cl)ccc2N)n1C [2-amino-N-[(2Z)-5-tert-butyl-3,4-dimethyl-2,3-dihydro-1,3-thiazol-2-ylidene]-5-chlorobenzene-1-sulfonamide] | 6.96 | 4.77 | 6.72 | – | – | – |
| CC(C)c1s/c(=N\S(=O)(=O)c2cc(C#N)ccc2C#N)n(C)c1Cl [N-(4-Chloro-5-isopropyl-3-methyl-1,3-thiazol-2(3H)-ylidene)-2,5-dicyanobenzenesulfonamide] | 6.68 | 5.52 | 8.02 | – | – | – |
| Cc1c(C(C)(C)C)s/c(=N\S(=O)(=O)c2cc(Cl)ccc2[N+](=O)[O-])n1C [N-[(2Z)-5-tert-butyl-3,4-dimethyl-2,3-dihydro-1,3-thiazol-2-ylidene]-5-chloro-2-nitrobenzene-1-sulfonamide] | – | < 4.30 | 5.62 | – | – | – |
| Cc1c(C(C)(C)C)s/c(=N\S(=O)(=O)c2ccc([N+](=O)[O-])cc2)n1C [N-(5-tert-Butyl-3,4-dimethyl-1,3-thiazol-2(3H)-ylidene)-4-nitrobenzenesulfonamide] | – | – | – | < 5.00 | < 5.00 | < 5.00 |
| COc1ccccc1S(=O)(=O)/N=c1\sc(C(C)(C)C)c(C)n1C [N-(5-tert-Butyl-3,4-dimethyl-1,3-thiazol-2(3H)-ylidene)-2-methoxybenzenesulfonamide] | – | – | – | – | < 4.30 | 4.30 |
| Cc1c(C(C)(C)C)s/c(=N\S(=O)(=O)c2ccc(Cl)cc2)n1C [N-(5-tert-Butyl-3,4-dimethyl-1,3-thiazol-2(3H)-ylidene)-4-chlorobenzenesulfonamide] | – | – | – | < 5.00 | < 5.00 | < 5.00 |
| COc1ccc(S(=O)(=O)/N=c2\sc(C(C)(C)C)c(C)n2C)cc1 [N-(5-tert-Butyl-3,4-dimethyl-1,3-thiazol-2(3H)-ylidene)-4-methoxybenzenesulfonamide] | < 5.00 | < 5.00 | < 5.00 | – | – | – |
| Cc1c(C(C)(C)C)s/c(=N\S(=O)(=O)c2cc(Cl)ccc2O)n1C [N-(5-tert-Butyl-3,4-dimethyl-1,3-thiazol-2(3H)-ylidene)-5-chloro-2-hydroxybenzenesulfonamide] | 7.96 | 5.96 | 7.49 | – | – | – |
| Cc1c(C(C)(C)C)s/c(=N\S(=O)(=O)c2ccc(O)cc2)n1C [N-(5-tert-Butyl-3,4-dimethyl-1,3-thiazol-2(3H)-ylidene)-4-hydroxybenzenesulfonamide] | < 5.00 | < 5.00 | < 5.00 | – | – | – |
| Cc1c(C(C)(C)C)s/c(=N\S(=O)(=O)c2ccccc2O)n1C [N-[(2Z)-5-tert-butyl-3,4-dimethyl-2,3-dihydro-1,3-thiazol-2-ylidene]-2-hydroxybenzene-1-sulfonamide] | 6.39 | 4.52 | 5.80 | – | – | – |
| Cc1c(C(C)C)s/c(=N\S(=O)(=O)c2cc(Cl)ccc2C#N)n1C [5-chloro-2-cyano-N-[(2Z)-3,4-dimethyl-5-(propan-2-yl)-2,3-dihydro-1,3-thiazol-2-ylidene]benzene-1-sulfonamide] | 6.70 | 5.23 | 7.96 | – | – | – |
| Cc1c(C(C)(C)C)s/c(=N\S(=O)(=O)c2cccc(Cl)c2O)n1C [N-[(2Z)-5-tert-butyl-3,4-dimethyl-2,3-dihydro-1,3-thiazol-2-ylidene]-3-chloro-2-hydroxybenzene-1-sulfonamide] | – | < 4.30 | 5.20 | – | – | – |
| Cc1c(C(C)(C)C)s/c(=N\S(=O)(=O)c2cccc(Cl)c2)n1C [N-[(2Z)-5-tert-butyl-3,4-dimethyl-2,3-dihydro-1,3-thiazol-2-ylidene]-3-chlorobenzene-1-sulfonamide] | – | – | – | 7.36 | 4.96 | 6.52 |
| Cc1c(C(C)C)s/c(=N\S(=O)(=O)c2cc(C#N)ccc2C#N)n1C [thiazolidenebenzenesulfonamide deriv.] | 6.33 | 5.39 | 7.92 | – | – | – |
| Cc1c(C(C)C)s/c(=N\S(=O)(=O)c2cc(Br)ccc2C#N)n1C [5-Bromo-2-cyano-N-(5-isopropyl-3,4-dimethyl-1,3-thiazol-2(3H)-ylidene)benzenesulfonamide] | 6.59 | 5.41 | 7.74 | – | – | – |
| Cc1c(C(C)(C)C)s/c(=N\S(=O)(=O)c2cc(Cl)ccc2NS(C)(=O)=O)n1C [N-[(2Z)-5-tert-butyl-3,4-dimethyl-2,3-dihydro-1,3-thiazol-2-ylidene]-5-chloro-2-methanesulfonamidobenzene-1-sulfonamide] | < 4.30 | < 4.30 | < 4.30 | – | – | – |
| CC(C)c1s/c(=N\S(=O)(=O)c2cc(Cl)ccc2C#N)n(C)c1Cl [5-Chloro-N-(4-chloro-5-isopropyl-3-methyl-1,3-thiazol-2(3H)-ylidene)-2-cyanobenzenesulfonamide] | 7.04 | 5.43 | 8.05 | – | – | – |
| CC(=O)Nc1ccc(Cl)cc1S(=O)(=O)/N=c1\sc(C(C)(C)C)c(C)n1C [N-(2-{[(5-tert-Butyl-3,4-dimethyl-1,3-thiazol-2(3H)-ylidene)amino]sulfonyl}-4-chlorophenyl)acetamide] | < 4.30 | < 4.30 | < 4.30 | – | – | – |
| Cc1c(C(C)C)s/c(=N\S(=O)(=O)c2cc(F)ccc2C#N)n1C [2-cyano-N-[(2Z)-3,4-dimethyl-5-(propan-2-yl)-2,3-dihydro-1,3-thiazol-2-ylidene]-5-fluorobenzene-1-sulfonamide] | 5.68 | < 5.00 | 7.04 | – | – | – |
| Cc1c(C(C)(C)C)s/c(=N\S(=O)(=O)c2cc(Cl)ccc2C(N)=O)n1C [2-{[(5-tert-Butyl-3,4-dimethyl-1,3-thiazol-2(3H)-ylidene)amino]sulfonyl}-4-chlorobenzamide] | < 5.00 | < 5.00 | < 5.00 | – | – | – |
| Cc1c(C(C)(C)C)s/c(=N\S(=O)(=O)c2cc(Cl)ccc2C#N)n1C [N-(5-tert-Butyl-3,4-dimethyl-1,3-thiazol-2(3H)-ylidene)-5-chloro-2-cyanobenzenesulfonamide] | 7.16 | < 4.30 | 6.74 | – | – | – |
| CC(C)c1s/c(=N\S(=O)(=O)c2cc(Cl)ccc2O)n(C)c1Cl [5-chloro-N-[(2Z)-4-chloro-3-methyl-5-(propan-2-yl)-2,3-dihydro-1,3-thiazol-2-ylidene]-2-hydroxybenzene-1-sulfonamide] | 7.68 | 6.77 | 8.03 | – | – | – |
| COc1cccc(S(=O)(=O)/N=c2\sc(C(C)(C)C)c(C)n2C)c1 [N-[(2Z)-5-tert-butyl-3,4-dimethyl-2,3-dihydro-1,3-thiazol-2-ylidene]-3-methoxybenzene-1-sulfonamide] | – | < 4.30 | 5.06 | – | – | – |
